Assay results from patent US10183032B2, “Methods for treating bacterial infection” (Ball State Innovation Corporation, priority 2012, dated 2019).

Tests used:
[1] = system: vinculin-containing adhesion complexes; experiment: Vinculin-containing adhesion complexes in HUVEC; assay type: cell-based, human; details: ML 141 10 μM, 18-20 h, vehicle control 64%
Protocol: FIG. 10A is an image depicting ML 141 inhibition of CDC42 limiting the formation of adhesion complexes. Human umbilical vein endothelial cells (HUVEC) were incubated (18-20 h) with the vehicle control dimethyl sulfoxide (DMSO) or with ML 141 (10 μM). Pretreated HUVEC were fixed, permeabilized, blocked, and stained with anti-vinculin followed by anti-mouse Alexa Fluor 488. Arrows indicate vinculin-containing complexes. Data are presented as the % of cells where vinculin-containing adhesion complexes were detected. 100-200 cells/treatment were evaluated from randomly selected fields (p<0.001 by χ^2). Scale bar 50 μm.

[2] = system: Human umbilical vein endothelial cells; experiment: Cytotoxicity assay (XTT), HUVEC; assay type: cell-based; details: HUVEC treated overnight, PEG solvent
Protocol: FIG. 6A illustrates that neither cytotoxicity nor bactericidal activity is detected. Human umbilical vein endothelial cells (HUVEC) were pretreated (18 hours) with the vehicle control polyethylene glycol (PEG) or with ML 141 and viability assessed using an XTT assay. The formazan dye produced in living cells was detectable at an absorbance wavelength of 490 nanometers and used as an indicator of cell viability. Absorbance values were not different amongst the groups (p>0.05 by one-way ANOVA; n=3/treatment).
HUVEC are plated at a density of 1.2×10^4 cells/ml into 96-well dishes coated with Attachment Factor. The next day, cells are pretreated with the vehicle control DMSO or with ML 141 (18 hours). An XTT-reducing assay is performed and absorbance read at 490 nanometers using a Bio-Rad plate reader.

[3] = system: Human umbilical vein endothelial cells; experiment: Transmission electron microscopy of infected HUVEC; assay type: cell-based; details: ML 141 10 μM, S. aureus MOI 30, 2 h
Protocol: FIG. 9 is an image depicting ML 141 limiting damage to host cells. Human umbilical vein endothelial cells were incubated with the vehicle control polyethylene glycol (PEG) or with ML 141 (10 μM) 18-20 h prior to infection with Staphylococcus aureus at a multiplicity of infection of 30 (2 h). Following infection, extracellular bacteria were removed by incubating with lysostaphin and gentamicin (45 min), antimicrobials with limited mammalian membrane permeability. Antimicrobial-containing media was replenished and incubation extended an additional 24 h. Cells were fixed, stained, and examined by transmission electron microscopy. White arrow indicates mitochondria. Black arrow indicates filopodia. White arrowhead indicates membranous structure surrounding bacteria. Black arrowhead indicates dividing bacteria. Scale bar is 5 μm.
HUVEC were plated onto glass coverslips at […], pretreated and infected at a multiplicity of infection (MOI) of 30 for 2 h. Extracellular bacteria were removed and cells incubated for an additional 24 h in media containing antibiotics. […]

[4] = system: Staphylococcus aureus; experiment: S. aureus invasion of serum-starved RAW 264.7 cells, CFU recovery; assay type: cell-based; details: treatment 1 hour, serum-starved conditions, 10 μM
Protocol: FIG. 5 is a graph illustrating ML 141 inhibiting invasion with shorter duration exposure under serum starved conditions. RAW 264.7 cells were serum-starved overnight then pretreated for 1 hour with the vehicle control dimethyl sulfoxide (DMSO) or with ML 141 (10 μM). Following infection with Staphylococcus aureus (1 hour), extracellular bacteria were eliminated using the antimicrobials gentamicin and lysostaphin (45 minutes), and intracellular bacteria recovered by permeabilizing the host cells. Serial dilutions of the recovered intracellular bacteria were incubated on tryptic soy agar, colonies enumerated, and colony forming units (CFU)/ml calculated (*less than vehicle control; p≤0.05 by Student's t-test; n=3/treatment). […]
Two days prior to the assay, TSB is inoculated with S. aureus (American Type Culture Collection #29213) and incubated overnight (225 rpm, 37° C.). […] To detect the level of infection using flow cytometry, cells that have been infected with fluorescently-labeled bacteria are washed extensively with PBS, lifted from 96-well plate by incubation with trypsin, washed extensively in FACS buffer (2% BSA/0.1% sodium azide/PBS), fixed (FACS buffer containing 0.74% formaldehyde), and are counted using an Accuri flow cytometer (BD, Franklin Lakes, N.J.). […]

SMILES: COc1ccc(C2CC(c3ccccc3)=NN2c2ccc(S(N)(=O)=O)cc2)cc1 (stereo not shown) [ML 141, 4-[3-(4-methoxyphenyl)-5-phenyl-3,4-dihydropyrazol-2-yl]benzenesulfonamide]
- % of cells with vinculin-containing adhesion complexes [1]: 37%
- Cytotoxicity (XTT, absorbance 490 nm) [2]: not detectable
- host cell ultrastructure 24 h post-invasion (organelles) [3]: remained intact
- inhibition of invasion, shorter exposure [4]: Inhibition is detectable
